Experimental data reported in patent US9657351B2, “MRNA-based gene expression for personalizing patient cancer therapy with an MDM2 antagonist” (Hoffmann-La Roche Inc., priority 2013, dated 2017).

Assays:
Test in all cases: COMPOUND A In Vitro Assay
Assay type in all cases: cell-based
NCI-H2170 = conditions: Homo sapiens, Lung, TP53 Mutant
In short: (§1)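 IC50 is the reported therapy response, obtained by high-throughput screening of human cancer cell lines exposed to RG7112. Values at or below 1 classify a line as sensitive. Values of 10 or more mark it resistant.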

Hs 38•T = conditions: Homo sapiens
In short: as §1

NB-4 = conditions: Homo sapiens, Myeloblast, TP53 Mutant
In short: as §1

DU-4475 = conditions: Homo sapiens, Breast, mammary gland, TP53 Wild type
In short: as §1

A-172 = conditions: Homo sapiens
In short: as §1

MKN-1 = conditions: Homo sapiens, Muscle, smooth, stomach, TP53 Mutant
In short: as §1

SK-HEP-1 = conditions: Homo sapiens
In short: as §1

NCI-H292 = conditions: Homo sapiens, Lung, TP53 Wild type
In short: as §1

Caki-1 = conditions: Homo sapiens
In short: as §1

NCI-H460 = conditions: Homo sapiens
In short: as §1

SW1116 = conditions: Homo sapiens, SW 1116, Intestine, large, colon, TP53 Mutant
In short: as §1

NCI-H1944 = conditions: Homo sapiens, Lung, TP53 Wild type
In short: as §1

SBC-5 = conditions: Homo sapiens, Lung, TP53 Mutant
In short: as §1

KELLY = conditions: Homo sapiens, Brain, TP53 Mutant
In short: as §1

A-204 = conditions: Homo sapiens, A204, Muscle, TP53 Mutant
In short: as §1

COLO 205 = conditions: Homo sapiens, Intestine, large, colon, TP53 Mutant
In short: as §1

LoVo = conditions: Homo sapiens, Intestine, large, colon, TP53 Wild type
In short: as §1

U-2197 = conditions: Homo sapiens, Skin, hypodermis, subcutaneous, TP53 Mutant
In short: as §1

NCI-H358 = conditions: Homo sapiens, Lung, bronchi, TP53 Mutant
In short: as §1

NCI-H69 = conditions: Homo sapiens, Lung, TP53 Mutant
In short: as §1

NCI-H661 = conditions: Homo sapiens, Lung, TP53 Mutant
In short: as §1

SNU-5 = conditions: Homo sapiens, Stomach, TP53 Mutant
In short: as §1

NCI-H187 = conditions: Homo sapiens, Lung, TP53 Mutant
In short: as §1

SCaBER = conditions: Homo sapiens, Urinary, bladder, TP53 Mutant
In short: as §1

HCT-8 = conditions: Homo sapiens, Intestine, large, colon, TP53 Wild type
In short: as §1

AGS = conditions: Homo sapiens
In short: as §1

T-47D = conditions: Homo sapiens, T47D, Breast, mammary gland, TP53 Mutant
In short: as §1

MDA-MB-231 = conditions: Homo sapiens, Breast, mammary gland, TP53 Mutant
In short: as §1

786-O = conditions: Homo sapiens, 786-0, Kidney, TP53 Mutant
In short: as §1

NCI-H2023 = conditions: Homo sapiens, Lung, TP53 Mutant
In short: as §1

NCI-H441 = conditions: Homo sapiens, Lung, TP53 Mutant
In short: as §1

MOLM-13 = conditions: Homo sapiens
In short: as §1

NCI-H520 = conditions: Homo sapiens, Lung, TP53 Mutant
In short: as §1

K-562 = conditions: Homo sapiens, K562, Bone marrow, TP53 Mutant
In short: as §1

U-118 MG = conditions: Homo sapiens, Brain, TP53 Mutant
In short: as §1

## CCOc1cc(C(C)(C)C)ccc1C1=N[C@@](C)(c2ccc(Cl)cc2)[C@@](C)(c2ccc(Cl)cc2)N1C(=O)N1CCN(CCCS(C)(=O)=O)CC1 [COMPOUND A]
NCI-H2170
  IC50: 12 µM
Hs 38•T; Hs 38•T cells
  IC50: 0.7 µM
Hs 38•T; Hs 38•T, Ovary, TP53 Wild type
  IC50: 0.73 µM
NB-4
  IC50: 4.7 µM
DU-4475
  IC50: 2.1 µM
A-172; A 172, A-172, Brain, TP53 Wild type
  IC50: 0.58 µM
A-172; A 172, A-172 cells
  IC50: 0.6 µM
MKN-1
  IC50: 15 µM
SK-HEP-1; SK-HEP1, SK-HEP-1, Liver, TP53 Wild type
  IC50: 0.22 µM
SK-HEP-1; SK-HEP1, SK-HEP-1 cells
  IC50: 0.2 µM
NCI-H292
  IC50: 1.6 µM
Caki-1; CAKI-1, Caki-1, Kidney, TP53 Wild type
  IC50: 0.37 µM
Caki-1; CAKI-1, Caki-1 cells
  IC50: 0.4 µM
NCI-H460; NCI-H460, NCI-H460, Lung, TP53 Wild type
  IC50: 0.88 µM
NCI-H460; NCI-H460, NCI-H460 cells
  IC50: 0.9 µM
SW1116
  IC50: 12 µM
NCI-H1944
  IC50: 7 µM
SBC-5
  IC50: 18 µM
KELLY
  IC50: 15 µM
A-204
  IC50: 8.4 µM
COLO 205
  IC50: 9.1 µM
LoVo
  IC50: 1.3 µM
U-2197
  IC50: 22 µM
NCI-H358
  IC50: 8.1 µM
NCI-H69
  IC50: 15 µM
NCI-H661
  IC50: 11 µM
SNU-5
  IC50: 16 µM
NCI-H187
  IC50: 15 µM
SCaBER
  IC50: 8.5 µM
HCT-8
  IC50: 16 µM
AGS; AGS cells
  IC50: 0.1 µM
AGS; Stomach, TP53 Wild type
  IC50: 0.13 µM
T-47D
  IC50: 9.9 µM
MDA-MB-231
  IC50: 17 µM
786-O
  IC50: 9.5 µM
NCI-H2023
  IC50: 5.8 µM
NCI-H441
  IC50: 10 µM
MOLM-13; MOLM-13, MOLM-13, Blood, TP53 Wild type
  IC50: 0.19 µM
MOLM-13; MOLM-13, MOLM-13 cells
  IC50: 0.2 µM
NCI-H520
  IC50: 17 µM
K-562
  IC50: 16 µM
U-118 MG
  IC50: 19 µM
